Data as given in patent publication US10428066B2, “Imidazo[4,5-C]pyridine and pyrrolo[2,3-C]pyridine derivatives as SSAO inhibitors” (PROXIMAGEN, LLC, priority 2013, dated 2019).
pIC50: −log10 of the molar value. Where a name gives a salt, the structure may show the parent alone.

Target: purified recombinantly expressed human SSAO (Homo sapiens (Human), UniProt Q16853)
Assay: SSAO enzyme inhibition assay (HRP-coupled hydrogen peroxide detection or 14C-benzaldehyde detection, benzylamine substrate)
Assay type: biochemical
Conditions: human recombinant SSAO, RT
Description: All primary assays were performed at RT. with purified recombinantly expressed human SSAO. Enzyme was prepared essentially as described in Öhman et al. (Protein Expression and Purification 46 (2006) 321-331). In addition, secondary- and selectivity assays were performed using SSAO prepared from various tissues or purified rat recombinant SSAO. The enzyme activity was assayed with benzylamine as substrate by measuring either benzaldehyde production, using ^14C-labeled substrate, or by utilizing the production of hydrogen peroxide in a horseradish peroxidase (HRP) coupled reaction. Briefly, test compounds were dissolved in dimethyl sulfoxide (DMSO) to a concentration of 10 mM. Dose-response measurements were assayed by either creating 1:10 serial dilutions in DMSO to produce a 7 point curve or by making 1:3 serial dilutions in DMSO to produce 11 point curves.
In a horseradish peroxidase (HRP) coupled reaction, hydrogen peroxide oxidation of 10-acetyl-3,7-dihydroxyphenoxazine produced resorufin, which is a highly fluorescent compound (Zhout and Panchuk-Voloshina. Analytical Biochemistry 253 (1997) 169-174; Amplex® Red Hydrogen Peroxide/peroxidase Assay kit, Invitrogen A22188). Enzyme and compounds in 50 mM sodium phosphate, pH 7.4 were set to pre-incubate in flat-bottomed microtiter plates for approximately 15 min before initiating the reaction by addition of a mixture of HRP, benzylamine and Amplex reagent. Benzylamine concentration was fixed at a concentration corresponding to the Michaelis constant, determined using standard procedures. Fluorescence intensity was then measured at several time points during 1-2 h, exciting at 544 nm and reading the emission at 590 nm. For the human SSAO assay final concentrations of the reagents in the assay wells were: SSAO enzyme 1 ug/ml, benzylamine 100 uM, Amplex reagent 20 uM, HRP 0.1 U/mL and varying concentrations of test compound. The inhibition was measured as % decrease of the signal compared to a control without inhibitor (only diluted DMSO). The background signal from a sample containing no SSAO enzyme was subtracted from all data points. Data was fitted to a four parameter logistic model and IC50 values were calculated using the GraphPad Prism 4 or XLfit 4 programs.
SSAO activity was assayed using 14C-labeled benzylamine and analysed by measuring radioactive benzaldehyde. In a white 96-well optiplate (Packard), 20 uL of diluted test compound was pre-incubated at room temperature with 20 uL SSAO enzyme for approximately 15 min with continuous agitation. All dilutions were made with PBS. The reaction was initiated by adding 20 uL of the benzylamine substrate solution containing [7-14C] Benzylamine hydrochloride (CFA589, GE Healthcare). The plate was incubated for 1 h as above after which the reaction was stopped by acidification (10 uL 1M aq HCl). Then 90 uL Micro Scint-E solution (Perkin-Elmer) was added to each well and the plate was continuously mixed for 15 min. Phase separation occurred instantly and activity was read in a Topcount scintillation counter (Perkin-Elmer). In the final reaction well, the human recombinant SSAO concentration was 10 ug/ml. In order to optimize sensitivity, the substrate concentration was decreased as compared to the HRP coupled assay in order to get a higher fraction of radioactive product. In the human SSAO assay, benzylamine concentration was 40 uM (0.2 uCi/mL). Data was analysed as above.

Sequence of purified recombinantly expressed human SSAO (Q16853 29-763): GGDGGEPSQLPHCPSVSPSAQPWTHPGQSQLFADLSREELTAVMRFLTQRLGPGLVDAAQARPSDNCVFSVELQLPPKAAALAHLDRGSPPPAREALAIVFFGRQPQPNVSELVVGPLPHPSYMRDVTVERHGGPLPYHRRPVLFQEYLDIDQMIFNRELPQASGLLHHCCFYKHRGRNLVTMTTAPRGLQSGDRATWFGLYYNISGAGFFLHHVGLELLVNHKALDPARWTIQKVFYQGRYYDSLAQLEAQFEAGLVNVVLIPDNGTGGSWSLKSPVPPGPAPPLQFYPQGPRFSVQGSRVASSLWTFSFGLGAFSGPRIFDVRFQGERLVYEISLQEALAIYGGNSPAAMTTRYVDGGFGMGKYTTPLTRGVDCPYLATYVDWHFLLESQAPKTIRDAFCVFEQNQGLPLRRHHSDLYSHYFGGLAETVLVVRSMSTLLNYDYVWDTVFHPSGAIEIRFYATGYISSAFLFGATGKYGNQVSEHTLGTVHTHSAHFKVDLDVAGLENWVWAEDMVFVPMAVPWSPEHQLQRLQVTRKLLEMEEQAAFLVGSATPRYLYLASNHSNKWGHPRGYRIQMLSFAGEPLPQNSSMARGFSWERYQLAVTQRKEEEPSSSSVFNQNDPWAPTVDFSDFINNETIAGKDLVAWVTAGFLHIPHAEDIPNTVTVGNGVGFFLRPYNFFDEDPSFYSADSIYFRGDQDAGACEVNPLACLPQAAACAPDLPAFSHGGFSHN

SMILES: Clc1ccc(-n2c(-c3cccnc3)nc3ccncc32)cc1 [Example 1, 3-[3-(4-Chlorophenyl)-3H-imidazo[4,5-c]pyridin-2-yl]pyridine]
- pIC50: 5.92 to 6.70

SMILES: Clc1ccc(-n2c(-c3ccncc3)nc3ccncc32)cc1 [Example 2, 4-[3-(4-Chlorophenyl)-3H-imidazo[4,5-c]pyridin-2-yl]pyridine]
- pIC50: 5.92 to 6.70

SMILES: Clc1ccc(-n2c(-c3ccc(CN4CCOCC4)nc3)nc3ccncc32)cc1 [Example 3, 4-({5-[3-(4-Chlorophenyl)-3H-imidazo[4,5-c]pyridin-2-yl]pyridin-2-yl}methyl)morpholine]
- pIC50: 6.70 to 7.30

SMILES: Clc1ccc(-n2c(-c3cnc(N4CCOCC4)cn3)nc3ccncc32)cc1 [Example 5, 4-{5-[3-(4-Chlorophenyl)-3H-imidazo[4,5-c]pyridin-2-yl]pyrazin-2-yl}morpholine]
- pIC50: 6.70 to 7.30

SMILES: O=C(c1ccc(-c2nc3ccncc3n2-c2ccc(Cl)cc2)cn1)N1CCOCC1 [Example 6, 4-({5-[3-(4-Chlorophenyl)-3H-imidazo[4,5-c]pyridin-2-yl]pyridin-2-yl}carbonyl)morpholine]
- pIC50: 5.92 to 6.70

SMILES: Clc1ccc(-n2c(-c3cnc(NC4CCOCC4)cn3)nc3ccncc32)cc1 [Example 7, 5-[3-(4-Chlorophenyl)-3H-imidazo[4,5-c]pyridin-2-yl]-N-(oxan-4-yl)pyrazin-2-amine]
- pIC50: 6.70 to 7.30

SMILES: Fc1ccc(-n2c(-c3cnc(NC4CC4)nc3)nc3ccncc32)cc1 [Example 10, N-Cyclopropyl-5-[3-(4-fluorophenyl)-3H-imidazo[4,5-c]pyridin-2-yl]pyrimidin-2-amine]
- pIC50: 6.70 to 7.30

SMILES: O=C1CN(c2ncc(-c3nc4ccncc4n3-c3ccc(F)cc3)cn2)CCN1 [Example 12, 4-{5-[3-(4-Fluorophenyl)-3H-imidazo[4,5-c]pyridin-2-yl]pyrimidin-2-yl}piperazin-2-one]
- pIC50: 6.70 to 7.30

SMILES: O=C(NC1CC1)c1ccc(-c2nc3ccncc3n2-c2ccc(Cl)cc2)cn1 [Example 14, 5-[3-(4-Chlorophenyl)-3H-imidazo[4,5-c]pyridin-2-yl]-N-cyclopropylpyridine-2-carboxamide]
- pIC50: 5.92 to 6.70

SMILES: Fc1ccc(-n2c(-c3ccc(C4CCOCC4)nn3)nc3ccncc32)cc1 [Example 15, 3-[3-(4-Fluorophenyl)-3H-imidazo[4,5-c]pyridin-2-yl]-6-(oxan-4-yl)pyridazine]
- pIC50: 6.70 to 7.30

SMILES: CS(=O)(=O)Nc1ccc(-c2nc3ccncc3n2-c2ccc(Cl)cc2)cn1 [Example 16, N-{5-[3-(4-Chlorophenyl)-3H-imidazo[4,5-c]pyridin-2-yl]pyridin-2-yl}methanesulfonamide]
- pIC50: 5.92 to 6.70

SMILES: Clc1ccc(-n2c(-c3csc(N4CCNCC4)n3)nc3ccncc32)cc1 [Example 17, 1-{4-[3-(4-Chlorophenyl)-3H-imidazo[4,5-c]pyridin-2-yl]-1,3-thiazol-2-yl}piperazine dihydrochloride]
- pIC50: 5.92 to 6.70

SMILES: Clc1ccc(-n2c(-c3cnc(N4CCNCC4)o3)nc3ccncc32)cc1 [Example 18, 1-{5-[3-(4-Chlorophenyl)-3H-imidazo[4,5-c]pyridin-2-yl]-1,3-oxazol-2-yl}piperazine dihydrochloride]
- pIC50: 6.70 to 7.30

SMILES: Clc1ccc(-n2c(-c3cnc(N4CCNCC4)s3)nc3ccncc32)cc1 [Example 19, 1-{5-[3-(4-Chlorophenyl)-3H-imidazo[4,5-c]pyridin-2-yl]-1,3-thiazol-2-yl}piperazine]
- pIC50: 6.70 to 7.30

SMILES: Fc1ccc(-n2c(-c3cnc(NC4CCOCC4)nc3)nc3ccncc32)cc1 [Example 20, 5-[3-(4-Fluorophenyl)-3H-imidazo[4,5-c]pyridin-2-yl]-N-(oxan-4-yl)pyrimidin-2-amine]
- pIC50: 6.70 to 7.30

SMILES: Cc1nc(N2CCOCC2)ncc1-c1nc2ccncc2n1-c1ccc(F)cc1 [Example 26, 4-{5-[3-(4-Fluorophenyl)-3H-imidazo[4,5-c]pyridin-2-yl]-4-methylpyrimidin-2-yl}morpholine]
- pIC50: 6.70 to 7.30

SMILES: COc1nc(N2CCOCC2)ccc1-c1nc2ccncc2n1-c1ccc(F)cc1 [Example 28, 4-{5-[3-(4-Fluorophenyl)-3H-imidazo[4,5-c]pyridin-2-yl]-6-methoxypyridin-2-yl}morpholine]
- pIC50: 6.70 to 7.30
